Experimental data taken from PubChem BioAssay AID1963852 (Molecular Pharmacology Branch, DTP, NCI, 2024).
“And” between values parts separate entries of the source, which are not always exact repeats. Equal values may be shown once.

Tested on: 282377-053-R-J1-PDC complex spheroid viability
Test: Anticancer human tumor 282377-053-R-J1-PDC patient-derived colon adenocarcinoma cell line growth inhibition [POLQ]
Settings: for viability, T/C: stronger effect = lower value
Method: Multicellular complex tumor spheroid response to Polymerase (POL) inhibitors (novobiocin, ART-558, RP6685) in combination with a variety of drugs and investigational agents in selected tumor cell lines
The POL inhibitors (novobiocin, ART-558, and RP6685) were evaluated both individually and in combination with standard of care and investigational anticancer small molecules within a complex spheroid model of solid tumors. . Complex spheroids include a stromal component modeled by human endothelial cells (HUVEC) and fibroblasts modeled by human mesenchymal stem cells (MSCs). The concentration ranges selected for each drug and investigational agent were based upon clinically achievable concentrations if the clinical Cmax of the agent was known.
Compounds. The drugs and investigational agents: novobiocin (NSC847541), ART-558 (NSC835418), RP-6685 (NSC848927), peposertib (NSC802822), ceralasertib (NSC780249), elimusertib (NSC800525), camonsertib (NSC841442), AZD-1390 (NSC803789), olaparib (NSC753686), talazoparib (NSC767125), rucaparib (NSC756644), sotorasib (NSC818433), MRTX-1133 (NSC836407), SN-38 (NSC673596), topotecan (NSC609699), epotoside (NSC141540), doxorubicin (NSC123127), gemcitabine (NSC613327), 5-fluorouracil (NSC19893), paclitaxel (NSC125973), vemurafenib (NSC761431), MSA-2 (NSC828583), SN-011 (NSC837082), adavosertib (NSC754352), prexasertib (NSC758257), carboplatin (NSC241240) and oxaliplatin (NSC266046), were obtained from the National Cancer Institute (NCI) Developmental Therapeutics Program Chemical Repository (21). The FDA-approved anticancer drug set is available from the Developmental Therapeutics Program at https://dtp.cancer.gov/organization/dscb/obtaining/. […] The stock solutions were prepared in dimethyl sulfoxide (DMSO, Sigma-Aldrich, St. Louis, MO, cat. D2650), except for the platinum compounds which were prepared in saline (Quality Biological, Gaithersburg, MD, cat. 114-055-101), at 800-fold the tested concentration and stored at -70 degrees C prior to their use. All drugs and investigational agents were tested over a range starting from a high concentration at or near the clinical Cmax and decreasing in half-log increments. If the clinical Cmax for an agent had not been determined, the highest concentration tested was 10 microM, except for SN-38, which was tested at a high concentration of 1 microM.
Cell Culture. All cells were maintained in an incubator at 37 degrees C and 5% CO2 with 95% humidity. The PDC lines were cultured according to standard operating procedures established by the NCI PDMR (https://pdmr.cancer.gov). Table 3 of the manuscript, lists the cell lines along with the number of the three cell types plated to form the mct-spheroids and media for tumor cell growth. After thawing, all PDC lines, except 997537-175-T-J1-PDC and 415267-285-R-J2-PDC, were cultured in Matrigel-coated flasks prepared with a working solution of 1X Ham's F-12 nutrient mix, without supplementation (Thermo Fisher Scientific, cat. 11765054), 100 U/mL penicillin-streptomycin (Thermo Fisher Scientific, cat. 15140122), and 2.5% Matrigel (Corning Inc., Corning, NY, cat. 354248) for the first three passages. The two PDC lines 997537-175-T-J1-PDC and 415267-285-R-J2-PDC were cultured on uncoated flasks. The 857933-349-R-J2-PDC line was cultured in 6C/Colon 1B media containing advanced DMEM/F-12 (Thermo Fisher Scientific, cat. 12634028), 10 mM HEPES (Thermo Fisher Scientific, cat. 15630080), 1X GlutaMAX supplement (Thermo Fisher Scientific, cat. 35050061), 0.1 mg/mL primocin (InvivoGen, San Diego, CA, cat. ant-pm-2), 10% defined fetal bovine serum, heat inactivated (HyClone Laboratories Inc., Logan, UT, cat. SH30070.03HI), 50% L-WRN conditioned media (ATCC, cat. CRL-3276), 1.25 mM N-Acetyl-L-cysteine (Sigma-Aldrich, cat. A9165), 10 mM nicotinamide (Sigma-Aldrich, cat. N0636), 1X B-27 supplement (Thermo Fisher Scientific, cat. 17504044), 1X N-2 supplement (Thermo Fisher Scientific, cat. […]
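Also: spheroids exposed to compounds for seven days.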
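For viability, T/C in this document: 100% = DMSO vehicle control viability.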

COc1cc(C2c3cc4c(cc3C(OC3OC5COC(C)OC5C(O)C3O)C3COC(=O)C23)OCO4)cc(OC)c1O (stereo unspecified)
viability, T/C (compound 0.0316 µM): 86.7% and 90% and 76.8% | viability, T/C (compound 0.1 µM): 108% and 96.2% and 104% | viability, T/C (compound 0.316 µM): 94.2% and 108% and 83% | viability, T/C (compound 1 µM): 124% and 104% and 96.8% | viability, T/C (compound 3.16 µM): 82.7% and 105% and 70.8% | viability, T/C (compound 10 µM): 58% and 81.8% and 50.9% | IC50 (curve of compound): > 10 µM

CC1COCCN1c1cc(C2(S(C)(=N)=O)CC2)nc(-c2ccnc3[nH]ccc23)n1 (stereo unspecified) + Nc1ccc(C#CCN(C(=O)Cc2ncc(C(F)(F)F)cc2C(F)(F)F)c2ccc(F)cc2)nn1
IC50 (curve of first compound, second compound 0.0316 µM): > 10 µM | IC50 (curve of first compound, second compound 0.1 µM): > 10 µM | IC50 (curve of first compound, second compound 0.316 µM): > 10 µM | IC50 (curve of first compound, second compound 1 µM): > 10 µM | IC50 (curve of first compound, second compound 3.16 µM): > 10 µM | IC50 (curve of first compound, second compound 10 µM): > 10 µM | viability, T/C (second compound 0.0316 µM, first compound 0.0316 µM): 117% | viability, T/C (second compound 0.0316 µM, first compound 0.1 µM): 96.5% | viability, T/C (second compound 0.0316 µM, first compound 0.316 µM): 90.7% | viability, T/C (second compound 0.0316 µM, first compound 1 µM): 86.2% | viability, T/C (second compound 0.0316 µM, first compound 3.16 µM): 73.6% | viability, T/C (second compound 0.0316 µM, first compound 10 µM): 54.6% | viability, T/C (second compound 0.1 µM, first compound 0.0316 µM): 99.2% | viability, T/C (second compound 0.1 µM, first compound 0.1 µM): 106% | viability, T/C (second compound 0.1 µM, first compound 0.316 µM): 93.1% | viability, T/C (second compound 0.1 µM, first compound 1 µM): 79.8% | viability, T/C (second compound 0.1 µM, first compound 3.16 µM): 78.7% | viability, T/C (second compound 0.1 µM, first compound 10 µM): 58.5% | viability, T/C (second compound 0.316 µM, first compound 0.0316 µM): 116% | viability, T/C (second compound 0.316 µM, first compound 0.1 µM): 101% | viability, T/C (second compound 0.316 µM, first compound 0.316 µM): 93.1% | viability, T/C (second compound 0.316 µM, first compound 1 µM): 81.5% | viability, T/C (second compound 0.316 µM, first compound 3.16 µM): 80% | viability, T/C (second compound 0.316 µM, first compound 10 µM): 59.7% | viability, T/C (second compound 1 µM, first compound 0.0316 µM): 112% | viability, T/C (second compound 1 µM, first compound 0.1 µM): 90.9% | viability, T/C (second compound 1 µM, first compound 0.316 µM): 84.7% | viability, T/C (second compound 1 µM, first compound 1 µM): 91.7% | viability, T/C (second compound 1 µM, first compound 3.16 µM): 75.1% | viability, T/C (second compound 1 µM, first compound 10 µM): 70.3% | viability, T/C (second compound 3.16 µM, first compound 0.0316 µM): 116% | viability, T/C (second compound 3.16 µM, first compound 0.1 µM): 101% | viability, T/C (second compound 3.16 µM, first compound 0.316 µM): 91.4% | viability, T/C (second compound 3.16 µM, first compound 1 µM): 92.4% | viability, T/C (second compound 3.16 µM, first compound 3.16 µM): 76.1% | viability, T/C (second compound 3.16 µM, first compound 10 µM): 57.5% | viability, T/C (second compound 10 µM, first compound 0.0316 µM): 96.5% | viability, T/C (second compound 10 µM, first compound 0.1 µM): 119% | viability, T/C (second compound 10 µM, first compound 0.316 µM): 106% | viability, T/C (second compound 10 µM, first compound 1 µM): 95% | viability, T/C (second compound 10 µM, first compound 3.16 µM): 93% | viability, T/C (second compound 10 µM, first compound 10 µM): 72.4%

CC[C@@]1(O)C(=O)OCc2c1cc1n(c2=O)Cc2cc3c(CN(C)C)c(O)ccc3nc2-1
viability, T/C (compound 0.000316 µM): 98.9% and 101% and 105% | viability, T/C (compound 0.001 µM): 93.9% and 102% and 98.8% | viability, T/C (compound 0.00316 µM): 77% and 92.2% and 116% | viability, T/C (compound 0.01 µM): 119% and 104% and 94.3% | viability, T/C (compound 0.0316 µM): 98.5% and 97.7% and 86.9% | viability, T/C (compound 0.1 µM): 81.5% and 110% and 76.7% | IC50 (curve of compound): > 0.1 µM
